Laboratory results taken from publication PMC8419995, “In vitro and in vivo efficacy of thiacloprid against Echinococcus multilocularis” (Parasites & Vectors, 2021).

Experiments:
[1] = Toxicity of thiacloprid in vivo (serum biochemistry, blood cells, histopathology); conditions: normal BALB/c mice, 6 weeks; for Alanine aminotransferase / Albumin / Alkaline phosphatase / Aspartate aminotransferase / Blood urea nitrogen / Creatinine / Direct bilirubin / Globulin / Indirect bilirubin / Total bilirubin / Total protein: serum; for Hemoglobin / PLT / RBC / WBC: whole blood
Experimental: Based on the previous thiacloprid dose concentration, we selected 15 mg/kg and 30 mg/kg thiacloprid concentrations to evaluate the toxicity in vivo [35]. The toxicity of thiacloprid was assessed in normal BALB/c mice. Normal mice were randomly divided into three groups and received the following treatments (6 animals per group): The control group was not administered any drug; the Thia15 group and Thia30 group received thiacloprid orally (15 mg/kg/day and 30 mg/kg/day). After 6 weeks of treatment, blood samples were collected from the orbital sinus of mice under anesthesia before euthanasia, which were preserved in EDTA-K2 anticoagulant tubes for white blood cell (WBC), hemoglobin (Hb) and platelet (PLT) analysis. For assessing biochemical indicators, blood samples were incubated in anticoagulant-free tubes at 37 °C for 1 h, followed by 3500 rpm centrifugation for 10 min. The isolated serum samples were used to detect relative levels of alanine aminotransferase (ALT), aspartate aminotransferase (AST), total bilirubin (TBIL), direct bilirubin (DBIL), indirect bilirubin (IBIL), total protein (TP), albumin (ALB), alkaline phosphatase (ALP), creatinine (CREA) and blood urea nitrogen (BUN). Subsequently, mice were sacrificed for harvesting the liver and kidneys, which were fixed in 4% paraformaldehyde, prepared for hematoxylin–eosin (HE) staining and observed under a Zeiss Vert.A1 microscope.
(§1) Tissues from experimental animals were washed in PBS and fixed in 4% paraformaldehyde at room temperature for […]. On the next day, they were dehydrated, embedded, and sliced into 5-μm sections. After dewaxing and dehydrating, sections were stained with hematoxylin for 2–5 min, and re-stained with eosin for 15 s. They were sealed with neutral gum and observed under a BX51 microscope (Olympus, Tokyo, Japan).

[2] = tested on: E. multilocularis metacestodes; assay: In vivo treatment of mice experimentally infected with E. multilocularis metacestodes; set-up: species or system Echinococcus multilocularis; conditions: for Wet weight of the metacestodes: infected BALB/c mice, untreated 6.49 ± 1.18 g
Experimental: In vitro-grown metacestode vesicles were pressed through a 500 µm mesh and washed three times with sterile PBS. The parasite tissue was then taken up in an equal volume of sterile PBS. Each mouse was intraperitoneally injected with 200 μl suspension. Seven mice were injected with 200 μl PBS as the control group. Twenty-eight infected mice were randomly distributed into four groups (7 mice/group): the untreated group was not administered any drug; the ABZ group was treated with ABZ orally (100 mg/kg/day); and the Thia15 group and Thia30 group received thiacloprid orally (15 mg/kg/day and 30 mg/kg/day). Treatments of mice started 2 weeks post-infection, and treatments were administered daily for 6 weeks. After 6 weeks of treatment, whole blood via the orbital sinus was collected from mice and the animals were euthanized by CO2. Blood samples were incubated at 37 °C for 1 h and centrifuged at 3500 rpm for 10 min at 4 °C. The serum was harvested and stored at –20 °C for IL-2, IL-4, IL-10 and IgE detection. All metacestode tissues were collected, and the total wet weight of metacestodes per mice was determined. Furthermore, the content of cytokines in microcyst fluid was detected by enzyme-linked immunosorbent assay (ELISA). Several metacestode tissue specimens were processed for transmission electron microscopy (TEM) and histopathological experiments.
as §1
A Periodic Acid Schiff Stain Kit (Solarbio, Beijing, China) was used to show the PAS-positive laminated layer characteristic of E. multilocularis metacestodes. The section (5 μm) was dewaxed in xylene and rehydrated in 100%, 95%, 80%, and 75% alcohol baths. Staining was then carried out according to the kit instructions.

N#C/N=C1\SCCN1Cc1ccc(Cl)nc1 [thiacloprid]
Alanine aminotransferase ([1]; 15 mg/kg/day orally): 66.00 ± 5.33 U/L
Albumin ([1]; 15 mg/kg/day orally): 28.95 ± 2.35 g/L
Alkaline phosphatase ([1]; 15 mg/kg/day orally): 57.67 ± 5.43 U/L
Aspartate aminotransferase ([1]; 15 mg/kg/day orally): 164.70 ± 36.71 U/L
Blood urea nitrogen ([1]; 15 mg/kg/day orally): 7.23 ± 1.87 mmol/L
Creatinine ([1]; 15 mg/kg/day orally): 16.08 ± 1.87 μM/L
Direct bilirubin ([1]; 15 mg/kg/day orally): 0.13 ± 0.05 μM/L
Globulin ([1]; 15 mg/kg/day orally): 36.67 ± 4.71 g/L
Indirect bilirubin ([1]; 15 mg/kg/day orally): 0.44 ± 0.17 μM/L
Total bilirubin ([1]; 15 mg/kg/day orally): 0.60 ± 0.10 μM/L
Total protein ([1]; 15 mg/kg/day orally): 65.90 ± 4.76 g/L
Hemoglobin ([1]; 15 mg/kg/day orally): 203.00 ± 11.15 g/L
PLT ([1]; 15 mg/kg/day orally): 613.70 ± 145.00 10^9/L
RBC ([1]; 15 mg/kg/day orally): 11.39 ± 1.48 10^12/L
WBC ([1]; 15 mg/kg/day orally): 11.69 ± 1.30 10^9/L
Alanine aminotransferase ([1]; 30 mg/kg/day orally): 67.50 ± 5.01 U/L
Albumin ([1]; 30 mg/kg/day orally): 29.72 ± 1.49 g/L
Alkaline phosphatase ([1]; 30 mg/kg/day orally): 58.50 ± 7.82 U/L
Aspartate aminotransferase ([1]; 30 mg/kg/day orally): 180.50 ± 45.71 U/L
Blood urea nitrogen ([1]; 30 mg/kg/day orally): 7.15 ± 0.47 mmol/L
Creatinine ([1]; 30 mg/kg/day orally): 15.18 ± 2.44 μM/L
Direct bilirubin ([1]; 30 mg/kg/day orally): 0.19 ± 0.16 μM/L
Globulin ([1]; 30 mg/kg/day orally): 37.77 ± 4.81 g/L
Indirect bilirubin ([1]; 30 mg/kg/day orally): 0.42 ± 0.19 μM/L
Total bilirubin ([1]; 30 mg/kg/day orally): 0.59 ± 0.16 μM/L
Total protein ([1]; 30 mg/kg/day orally): 65.82 ± 4.39 g/L
Hemoglobin ([1]; 30 mg/kg/day orally): 206.0 ± 9.93 g/L
PLT ([1]; 30 mg/kg/day orally): 670.80 ± 150.20 10^9/L
RBC ([1]; 30 mg/kg/day orally): 9.58 ± 0.82 10^12/L
WBC ([1]; 30 mg/kg/day orally): 12.72 ± 1.75 10^9/L
Histopathological examination of liver and kidneys (HE staining) ([1]; 15 and 30 mg/kg/day orally): did not show obvious histopathological changes or injury
PAS staining of laminated layer of metacestodes from treated mice ([2]; 6 weeks oral treatment): only a few laminated layers were observed
HE staining of metacestodes from treated mice ([2]; 6 weeks oral treatment, thiacloprid 15 or 30 mg/kg/day, ABZ 100 mg/kg/day): Considerable vacuoles
Wet weight of the metacestodes ([2]; thiacloprid 15 mg/kg/day orally, 6 weeks (Thia15 group)): 1.63 ± 0.62 g
Wet weight of the metacestodes ([2]; thiacloprid 30 mg/kg/day orally, 6 weeks (Thia30 group)): 1.63 ± 0.61 g
